Reference: patent US20080015146A1, “Dpp-IV Inhibitors” (SANTHERA PHARMACEUTICALS (DEUTSCHLAND) AG, priority 2004, published 2008)

Biological target: T1, DPP-IV (Homo sapiens, UniProt P27487)
T1 construct: Soluble human DPP-IV lacking the transmembrane anchor (Gly31-Pro766); Pre-Pro-alpha-mating factor secretion leader (N, cleaved yes); made in house
Test: Continuous fluorimetric assay of inhibition of DPP-IV peptidase activity (cleavage of Gly-Pro-AMC)
Assay type: biochemical
Details: substrate Gly-Pro-AMC 16 μM, pH 7.4, 25° C., 1% DMSO; assays carried out with human and porcine DPP-IV (comparable activities)
Description: Inhibition of DPP-IV peptidase activity was monitored with a continuous fluorimetric assay. This assay is based on the cleavage of the substrate Gly-Pro-AMC (Bachem) by DPP-IV, releasing free AMC. The assay is carried out in 96-well microtiterplates. In a total volume of 100 μl compounds are preincubated with […] DPP-IV employing a buffer containing 10 mM Hepes, 150 mM NaCl, 0.005% Tween 20 (pH 7.4). […] The final concentration of DMSO is 1%. The inhibitory potential of the compounds were determined.
Soluble human DPP-IV lacking the transmembrane anchor (Gly31-Pro766) was expressed in a recombinant YEAST-strain as Pre-Pro-alpha-mating fusion. The secreted product (rhuDPP-IV-Gly31-Pro766) was purified from fermentation broth (>90% purity).

T1 sequence (P27487 31-766): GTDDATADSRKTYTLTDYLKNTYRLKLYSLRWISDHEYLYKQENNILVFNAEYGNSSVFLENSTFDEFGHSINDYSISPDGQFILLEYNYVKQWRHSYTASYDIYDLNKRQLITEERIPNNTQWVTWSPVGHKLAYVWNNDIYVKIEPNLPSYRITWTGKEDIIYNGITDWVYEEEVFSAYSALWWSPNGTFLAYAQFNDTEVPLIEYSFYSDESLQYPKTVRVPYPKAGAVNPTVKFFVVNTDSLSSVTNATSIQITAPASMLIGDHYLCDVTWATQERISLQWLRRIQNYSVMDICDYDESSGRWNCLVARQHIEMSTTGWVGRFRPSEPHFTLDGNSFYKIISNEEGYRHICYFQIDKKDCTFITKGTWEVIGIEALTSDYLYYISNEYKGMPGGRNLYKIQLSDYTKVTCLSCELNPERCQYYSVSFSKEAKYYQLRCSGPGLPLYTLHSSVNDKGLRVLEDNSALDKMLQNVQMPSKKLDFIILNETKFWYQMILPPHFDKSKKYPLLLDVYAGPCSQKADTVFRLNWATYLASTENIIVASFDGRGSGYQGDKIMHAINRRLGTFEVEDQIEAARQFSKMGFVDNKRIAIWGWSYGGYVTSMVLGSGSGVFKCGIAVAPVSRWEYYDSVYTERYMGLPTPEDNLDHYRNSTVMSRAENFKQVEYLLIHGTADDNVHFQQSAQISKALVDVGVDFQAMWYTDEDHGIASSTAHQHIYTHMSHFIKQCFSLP

Compound	IC50 [nM]
N[C@@H](CC(=O)N1CC(n2cccn2)C1)Cc1ccccc1F [Example 52, (3R)-3-Amino-4-(2-fluoro-phenyl)-1-(3-pyrazol-1-yl-azetidin-1-yl)-butan-1-one]	101 to 1000
N[C@@H](CC(=O)N1CC(n2nccc2C(F)(F)F)C1)Cc1cc(F)c(F)cc1F [Example 54, (3R)-3-amino-1-[3-(5-trifluoromethyl-pyrazol-1-yl)azetidin-1-yl]-4-(2,4,5-trifluoro-phenyl)-butan-1-one]	< 100
N[C@@H](CC(=O)N1CC(n2ccc(C3CC3)n2)C1)Cc1cc(F)c(F)cc1F [Example 55, (R)-3-Amino-1-[3-(3-cyclopropyl-pyrazol-1-yl)-azetidin-1-yl]-4-(2,4,5-trifluoro-phenyl)butan-1-one]	< 100

Next, values leading:

IC50 [nM]	Compound
< 100	N[C@@H](CC(=O)N1CC(n2ccc(C(F)(F)F)n2)C1)Cc1cc(F)c(F)cc1F [Example 53, (3R)-3-Amino-1-[3-(3-trifluoromethyl-pyrazol-1-yl)-azetidin-1-yl]-4-(2,4,5-trifluorophenyl)-butan-1-one]
< 100	N[C@@H](CC(=O)N1CC(n2nccc2C2CC2)C1)Cc1cc(F)c(F)cc1F [Example 56, (R)-3-amino-1-[3-(5-cyclopropyl-pyrazol-1-yl)-azetidin-1-yl]-4-(2,4,5-trifluoro-phenyl)-butan-1-one]
